From patent US20160206606A1, “TOPICAL COMPOSITIONS COMPRISING A THIAZOLIDINEDIONE” (Topokine Therapeutics, Inc., priority 2014, published 2016)
Counter-ions that a name gives are not always drawn. Like-named read-outs stand apart in the source and are kept apart here.

Experiments:
[1] = cited from earlier work; for solubility in ethanol: background statement, temperature not stated
[2] = Solubility by serial addition of solvent to a known mass of the TZD until full dissolution; type: physicochemical
Description: The solubility of rosiglitazone maleate and pioglitazone hydrochloride in various solvents was tested by a standard method, i.e., serial addition of solvent to a known mass of the TZD compound, until full dissolution was observed. Additional solubility results were obtained from the literature. […] This phenomenon occurred in formulations comprising water, as well as formulations lacking water. […] Next, the solubility of troglitazone in various solvents was tested by a standard method, i.e., serial addition of solvent to a known mass of troglitazone, until full dissolution was observed. Additional solubility results were obtained from the literature.

[3] = solvent: 70% ethanol, 27% PG, 3% oleic acid
[4] = solvent: 70% ethanol, 30% propylene glycol (PG)

| Compound | solubility in ethanol [1] | Solubility at 25° C. ([1]; solvent: Ethanol) | Solubility at 25° C. ([1]; solvent: Water) | Solubility at 25° C. ([2]; solvent: 65% ethanol, 25% PG, 7% water, 3% oleic acid) [mg/g] | Solubility at 25° C. [2, 3] [mg/g] | increase of solubility in the vehicle on addition of oleic acid ([2]; about 3% w/w oleic acid added to ethanol-based vehicle) | increase of solubility in the vehicle on addition of oleic acid ([2]; about 3% w/w oleic acid added to isopropanol-based vehicle) | Solubility at 25° C. ([2]; solvent: 63% ethanol, 24% PG, 10% water, 3% oleic acid) [mg/g] | Solubility at 25° C. [2, 4] [mg/g] | Solubility at 25° C. ([2]; solvent: 70% isopropyl alcohol, 27% PG, 3% oleic acid) [mg/g] | Solubility at 25° C. ([2]; solvent: 70% isopropyl alcohol, 30% PG) [mg/g] |
| --- | --- | --- | --- | --- | --- | --- | --- | --- | --- | --- | --- |
| CCc1ccc(CCOc2ccc(CC3SC(=O)NC3=O)cc2)nc1 (stereo not drawn) [pioglitazone hydrochloride] | ~4000 µg/mL | 4 mg/mL | 0.05 mg/mL | ~9 | ~9 | – | – | – | – | – | – |
| CN(CCOc1ccc(CC2SC(=O)NC2=O)cc1)c1ccccn1 (stereo not drawn) [rosiglitazone maleate] | about 0.25 mg/mL | 0.25 mg/mL | – | – | ~10 | over 75 fold | about 3 fold | ~10 | 0.13 | 1.2 | 0.4 |
| Cc1c(C)c2c(c(C)c1O)CCC(C)(COc1ccc(CC3SC(=O)NC3=O)cc1)O2 (stereo not drawn) [troglitazone] | – | 0.3 mg/mL^b | 0.02 mg/mL^a | – | 0.6 | – | – | – | 0.3 | – | – |
